test system: human blood; experiment: Labeling of blood cells: yield of cell labeling in whole blood; format: cell-based; conditions: 2 mCi (74 MBq) in 3 mL fresh human blood, 10 minutes, after washings
Procedure: (§1) The radiopharmaceuticals of table I (2 mCi; 74 MBq) are incubated in 3 mL of a fresh sample of human blood for 10 minutes under slow shaking. The blood composition depends upon each sample taken from healthy volunteers (average composition: 1.6±0.3.10^10 Red Globules (RG) and 2.2±0.3.10^7 White Globules (WG) with 1.2±0.3.10^7 Polymorphs (57±9%) and 0.7±0.3.10^7 Lymphocytes (35±4%)]. Non-bound radioactivity is removed by successive washings (2×10 mL of RPMI culture medium 1640) of 10 minutes at 600 g. The yield of cell labeling is determined in a CAPINTEC CRC 120 activimeter. Cell viability is controlled by the Trypan blue exclusion test.
(§2) The results obtained, namely the labeling yield (Yield) and the percentages of activity in the separated fractions are given in tables 3 to 5.

Going from `S=C(S[S][99Tc]([S]SC(=S)c1cccc2ccccc12)[S]C(=S)c1cccc2ccccc12)c1cccc2ccccc12` [Example 24, [^99mTc(1-naphCS3)2(1-naphCS2)]] to `S=C(Cc1ccccc1)S[S][99Tc]([S]SC(=S)Cc1ccccc1)[S]C(=S)Cc1ccccc1` [Example 27, [^99mTc(PhCH2CS3)2(PhCH2CS2)]], the “Yield (±3%) of cell labeling” value rises from 74% to 88%.

With `S=C(CCc1ccccc1)S[S][99Tc]([S]SC(=S)CCc1ccccc1)[S]C(=S)CCc1ccccc1` [Example 28, [^99mTc(PhCH2CH2CS3)2(PhCH2CH2CS2)]] the “Yield (±3%) of cell labeling” value was 91%.
First: S=C(CCc1ccccc1)S[S][99Tc]([S]SC(=S)CCc1ccccc1)[S]C(=S)CCc1ccccc1 [Example 29, [^99mTc(PhCH2CH2CS3)2(PhCH2CH2CS2)]]
Second: [^99mTc(2-Me-naphCS3)2(2-Me-naphCS2)] [Example 25]
The “Yield (±3%) of cell labeling” value of the first is lower: 43% for the first, 96% for the second.

Going from “[^99mTc(2-Me-naphCS3)2(2-Me-naphCS2)] [Example 26]” to “[^99mTc(C6H12CS3)2CS2(C6H12CS2)] [Example 30]”, the “Yield (±3%) of cell labeling” value rises from 85% to 97%.

In the case of “[^99mTc(C6H12CS3)2CS2(C6H12CS2)] [Example 31]”, the “Yield (±3%) of cell labeling” value is reported as 63%.

test system: whole blood; experiment: Cell separation on whole blood (Polymorphprep gradient), activity in separated fractions; format: cell-based, human; parameters: tested at 2 mCi (74 MBq) in 3 mL blood; conditions: fraction: Polymorphprep gradient
Procedure: as §1, §2
In a first experiment, a separation of the blood constituents is made on a double density Polymorphprep® gradient.
Whole blood from healthy volunteers is labeled with 2 mCi of [^99mTc(ArCS3)2(ArCS2)] following the method described above. The blood constituents are then separated by the Polymorphprep® double density gradient into two separate fractions: lymphocytes and polymorphs/erythrocytes. The whole blood, diluted in 2-3 mL RPMI, is initially delicately placed on the Polymorphprep® gradient and then centrifuged (300 g, 20 min, 37° C.). […] Counting is made on each fraction using a MAXM Y07 00 367 counter in order to confirm cell constitution.

Compared with `S=C(Cc1ccccc1)S[S][99Tc]([S]SC(=S)Cc1ccccc1)[S]C(=S)Cc1ccccc1` [Example 27, [^99mTc(PhCH2CS3)2(PhCH2CS2)]], `S=C(CCc1ccccc1)S[S][99Tc]([S]SC(=S)CCc1ccccc1)[S]C(=S)CCc1ccccc1` [Example 28, [^99mTc(PhCH2CH2CS3)2(PhCH2CH2CS2)]] is lower in “Cell separation on whole blood (activity %): Polymorphprep” value: 10% for the first, 2% for the second.

First: S=C(CCc1ccccc1)S[S][99Tc]([S]SC(=S)CCc1ccccc1)[S]C(=S)CCc1ccccc1 [Example 29, [^99mTc(PhCH2CH2CS3)2(PhCH2CH2CS2)]]
Second: [^99mTc(2-Me-naphCS3)2(2-Me-naphCS2)] [Example 25]
The “Cell separation on whole blood (activity %): Polymorphprep” value of the first is higher: 6% for the first, 4% for the second.

Going from “[^99mTc(2-Me-naphCS3)2(2-Me-naphCS2)] [Example 26]” to “[^99mTc(C6H12CS3)2CS2(C6H12CS2)] [Example 30]”, the “Cell separation on whole blood (activity %): Polymorphprep” value rises from 2% to 10%.

In the case of “[^99mTc(C6H12CS3)2CS2(C6H12CS2)] [Example 31]”, the “Cell separation on whole blood (activity %): Polymorphprep” value is reported as 3%.

same assay, conditions: fraction: erythrocytes

Going from `S=C(S[S][99Tc]([S]SC(=S)c1cccc2ccccc12)[S]C(=S)c1cccc2ccccc12)c1cccc2ccccc12` [Example 24, [^99mTc(1-naphCS3)2(1-naphCS2)]] to `S=C(Cc1ccccc1)S[S][99Tc]([S]SC(=S)Cc1ccccc1)[S]C(=S)Cc1ccccc1` [Example 27, [^99mTc(PhCH2CS3)2(PhCH2CS2)]], the “Cell separation on whole blood (activity %): Erythrocytes” value falls from 46% to 11%.

In the case of `S=C(CCc1ccccc1)S[S][99Tc]([S]SC(=S)CCc1ccccc1)[S]C(=S)CCc1ccccc1` [Example 28, [^99mTc(PhCH2CH2CS3)2(PhCH2CH2CS2)]], the “Cell separation on whole blood (activity %): Erythrocytes” value is reported as 16%.
First: S=C(CCc1ccccc1)S[S][99Tc]([S]SC(=S)CCc1ccccc1)[S]C(=S)CCc1ccccc1 [Example 29, [^99mTc(PhCH2CH2CS3)2(PhCH2CH2CS2)]]
Second: [^99mTc(2-Me-naphCS3)2(2-Me-naphCS2)] [Example 25]
The “Cell separation on whole blood (activity %): Erythrocytes” value of the first is higher: 58% for the first, 10% for the second.

First: [^99mTc(2-Me-naphCS3)2(2-Me-naphCS2)] [Example 26]
Second: [^99mTc(C6H12CS3)2CS2(C6H12CS2)] [Example 30]
The “Cell separation on whole blood (activity %): Erythrocytes” value of the first is higher: 15% for the first, 13% for the second.

With “[^99mTc(C6H12CS3)2CS2(C6H12CS2)] [Example 31]” the “Cell separation on whole blood (activity %): Erythrocytes” value was 29%.

same assay, conditions: fraction: leukocytes

First: S=C(S[S][99Tc]([S]SC(=S)c1cccc2ccccc12)[S]C(=S)c1cccc2ccccc12)c1cccc2ccccc12 [Example 24, [^99mTc(1-naphCS3)2(1-naphCS2)]]
Second: S=C(Cc1ccccc1)S[S][99Tc]([S]SC(=S)Cc1ccccc1)[S]C(=S)Cc1ccccc1 [Example 27, [^99mTc(PhCH2CS3)2(PhCH2CS2)]]
The “Cell separation on whole blood (activity %): Leukocytes” value of the first is lower: 53% for the first, 77% for the second.

In the case of `S=C(CCc1ccccc1)S[S][99Tc]([S]SC(=S)CCc1ccccc1)[S]C(=S)CCc1ccccc1` [Example 28, [^99mTc(PhCH2CH2CS3)2(PhCH2CH2CS2)]], the “Cell separation on whole blood (activity %): Leukocytes” value is reported as 80%.
First: S=C(CCc1ccccc1)S[S][99Tc]([S]SC(=S)CCc1ccccc1)[S]C(=S)CCc1ccccc1 [Example 29, [^99mTc(PhCH2CH2CS3)2(PhCH2CH2CS2)]]
Second: [^99mTc(2-Me-naphCS3)2(2-Me-naphCS2)] [Example 25]
The “Cell separation on whole blood (activity %): Leukocytes” value of the first is lower: 35% for the first, 85% for the second.

Compared with “[^99mTc(2-Me-naphCS3)2(2-Me-naphCS2)] [Example 26]”, “[^99mTc(C6H12CS3)2CS2(C6H12CS2)] [Example 30]” is lower in “Cell separation on whole blood (activity %): Leukocytes” value: 79% for the first, 75% for the second.

With “[^99mTc(C6H12CS3)2CS2(C6H12CS2)] [Example 31]” the “Cell separation on whole blood (activity %): Leukocytes” value was 68%.

same assay, conditions: fraction: medium

`S=C(S[S][99Tc]([S]SC(=S)c1cccc2ccccc12)[S]C(=S)c1cccc2ccccc12)c1cccc2ccccc12` [Example 24, [^99mTc(1-naphCS3)2(1-naphCS2)]] and `S=C(Cc1ccccc1)S[S][99Tc]([S]SC(=S)Cc1ccccc1)[S]C(=S)Cc1ccccc1` [Example 27, [^99mTc(PhCH2CS3)2(PhCH2CS2)]] are the same in “Cell separation on whole blood (activity %): Medium” value: 1% for the first, 1% for the second.

With `S=C(CCc1ccccc1)S[S][99Tc]([S]SC(=S)CCc1ccccc1)[S]C(=S)CCc1ccccc1` [Example 28, [^99mTc(PhCH2CH2CS3)2(PhCH2CH2CS2)]] the “Cell separation on whole blood (activity %): Medium” value was 2%.
`S=C(CCc1ccccc1)S[S][99Tc]([S]SC(=S)CCc1ccccc1)[S]C(=S)CCc1ccccc1` [Example 29, [^99mTc(PhCH2CH2CS3)2(PhCH2CH2CS2)]] and “[^99mTc(2-Me-naphCS3)2(2-Me-naphCS2)] [Example 25]” are the same in “Cell separation on whole blood (activity %): Medium” value: 1% for the first, 1% for the second.

Compared with “[^99mTc(2-Me-naphCS3)2(2-Me-naphCS2)] [Example 26]”, “[^99mTc(C6H12CS3)2CS2(C6H12CS2)] [Example 30]” is lower in “Cell separation on whole blood (activity %): Medium” value: 4% for the first, 2% for the second.

test system: leukocytes; experiment: not given; conditions: in the presence of blood cells (erythrocytes, leukocytes, platelets); documents [3], [4], [6]; cited from earlier work

For `CCON(CC)C(=S)[S][99Tc](#[N])[S]C(=S)N(CC)OCC` [[^99mTcN(NOET)2], nitrurobis(N-ethoxy-N-ethyldithiocarbamato)technetium-99m], the “blood cell selectivity of labeling” value is given as “leukocyte labeling, of granulocytes in particular”.
For [^99mTCN(CH3)(CH2)8CS2)2], the “blood cell selectivity of labeling” value is listed as “selectivity for lymphocytes”.
